Reference: patent US20150105252A1, “SUBSTITUTED PYRAZOLES AS HERBICIDES” (E I DU PONT DE NEMOURS AND COMPANY, priority 2013, published 2015)

How the values were obtained:
wheat [1] = assay: Test C postemergence; assay type: in vivo, Triticum aestivum; details: postemergence; for Wheat plant response rating: 62 g ai/ha, scale 0 to 100
Method in brief: (§1)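 Visual control ratings on a 0–100 scale (100 = complete control) made against untreated controls after 13 to 15 days in greenhouse. Compounds applied in surfactant-containing solvent mixture, either preemergence to loam/sand-sown seeds or postemergence to 1- to 4-leaf plants (2–18 cm) in peat medium.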

wheat [2] = assay: Test A preemergence; assay type: in vivo, Triticum aestivum; details: preemergence
Method in brief: (§2)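 Pre- and postemergence greenhouse test; loam+sand; cpd in non-phytotox. solvent/surfactant; post at 1–2 leaf, 2–10 cm; visual score ~10 d, 0 = none, 100 = complete control.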

soybean [3] = assay: Test C preemergence; assay type: in vivo, Glycine max; details: for Plant response rating (scale of 0 to 100), Soybean: Preemergence, 250 g ai/ha; for Soybean plant response rating / Plant response rating, Soybean: preemergence; for Plant response rating, Soybean: 62 g ai/ha, scale 0 to 100, 0 = no effect, 100 = complete control
Method in brief: as §1

ragweed [4] = assay: Test C postemergence; assay type: in vivo, Ambrosia elation; details: postemergence
Method in brief: as §1

lambsquarters = assay: Test C postemergence; assay type: in vivo, Chenopodium album; details: for Lambsquarters plant response rating: scale 0 to 100
Method in brief: as §1

velvetleaf [5] = assay: Test C postemergence; assay type: in vivo, Abutilon theophrasti; details: postemergence; for Velvetleaf plant response rating: 62 g ai/ha, scale 0 to 100
Method in brief: as §1

velvetleaf [6] = assay: Test A postemergence; assay type: in vivo, Abutilon theophrasti
Method in brief: as §2

ragweed [7] = assay: Test C preemergence; assay type: in vivo, Ambrosia elation; details: for Plant response rating (scale of 0 to 100), Ragweed: Preemergence, 250 g ai/ha; for Ragweed plant response rating / Plant response rating, Ragweed: preemergence; for Plant response rating, Ragweed: 62 g ai/ha, scale 0 to 100, 0 = no effect, 100 = complete control
Method in brief: as §1

foxtail, giant = assay: Test A postemergence; assay type: in vivo, Setaria faberii
Method in brief: as §2

crabgrass, large = assay: Test A postemergence; assay type: in vivo, Digitaria sanguinalis
Method in brief: as §2

pigweed = assay: Test C preemergence; assay type: in vivo, Amaranthus retroflexus; details: for Plant response rating (scale of 0 to 100), Pigweed: Preemergence, 250 g ai/ha; for Pigweed plant response rating / Plant response rating, Pigweed: preemergence; for Plant response rating, Pigweed: 62 g ai/ha, scale 0 to 100, 0 = no effect, 100 = complete control
Method in brief: as §1

corn [8] = assay: Test A postemergence; assay type: in vivo, Zea mays
Method in brief: as §2

morningglory = assay: Test A postemergence; assay type: in vivo, Ipomoea spp.
Method in brief: as §2

corn [9] = assay: Test C postemergence; assay type: in vivo, Zea mays; details: for Corn plant response rating: scale 0 to 100
Method in brief: as §1

soybean [10] = assay: Test C postemergence; assay type: in vivo, Glycine max; details: postemergence; for Soybean plant response rating: 62 g ai/ha, scale 0 to 100
Method in brief: as §1

[11] = 250 g ai/ha, scale 0 to 100 (0 no effect, 100 complete control)
[12] = 125 g ai/ha, scale 0 to 100, 0 no effect, 100 complete control
[13] = 125 g ai/ha, visual injury, 0 to 100 scale, approx. 10 days
[14] = 500 g ai/ha, visual injury after approx. 10 days, 0 to 100 scale (0 no effect, 100 complete control)
[15] = 31 g ai/ha, scale 0 to 100 (0 no effect, 100 complete control), 13 to 15 days
[16] = 125 g ai/ha, scale 0 to 100, 0 is no effect, 100 is complete control
[17] = postemergence, 250 g ai/ha, scale 0 to 100 (0 no effect, 100 complete control)
[18] = postemergence, 125 g ai/ha, scale 0 to 100, 0 no effect, 100 complete control
[19] = Postemergence, 500 g ai/ha, visual rating after approx. 10 days, 0 to 100 scale (0 no effect, 100 complete control)
[20] = postemergence, 125 g ai/ha, about 10 days, visual rating on 0 to 100 scale (0 no effect, 100 complete control)
[21] = postemergence, 62 g ai/ha, scale 0 to 100, 0 no effect, 100 complete control

CCONC(=O)c1cc(CC)n(Cc2cccc(OC(F)(F)F)c2)n1 [Compound 72]
Wheat plant response rating (wheat [1]): 5
Plant response rating, Wheat (wheat [1]; [11]): 10
Plant response rating, Wheat (wheat [1]; [12]): 10
Wheat plant response rating (wheat [2]; [13]): 50
Wheat plant response rating (wheat [2]; [14]): 10
Plant response rating (scale of 0 to 100), Soybean (soybean [3]): 75
Soybean plant response rating (soybean [3]; [15]): 20
Plant response rating, Soybean (soybean [3]; 13 to 15 days): 60
Soybean plant response rating (soybean [3]; [16]): 75
Ragweed plant response rating (ragweed [4]; 62 g ai/ha, scale 0 to 100): 5
Plant response rating, Ragweed (ragweed [4]; [11]): 35
Plant response rating, Ragweed (ragweed [4]; [12]): 20
Lambsquarters plant response rating (lambsquarters; Postemergence, 31 g ai/ha): 60
Lambsquarters plant response rating (lambsquarters; postemergence, 62 g ai/ha): 70
Plant response rating, Lambsquarters (lambsquarters; [17]): 98
Plant response rating, Lambsquarters (lambsquarters; [18]): 90
Velvetleaf plant response rating (velvetleaf [5]): 5
Plant response rating, Velvetleaf (velvetleaf [5]; [11]): 55
Plant response rating, Velvetleaf (velvetleaf [5]; [12]): 35
Velvetleaf plant response rating (velvetleaf [6]; [19]): 90
Velvetleaf plant response rating (velvetleaf [6]; [20]): 80
Plant response rating (scale of 0 to 100), Ragweed (ragweed [7]): 60
Ragweed plant response rating (ragweed [7]; [15]): 0
Plant response rating, Ragweed (ragweed [7]; 13 to 15 days): 50
Ragweed plant response rating (ragweed [7]; [16]): 55
Foxtail, Giant plant response rating (foxtail, giant; [19]): 90
Foxtail, Giant plant response rating (foxtail, giant; [20]): 80
Crabgrass, Large plant response rating (crabgrass, large; [19]): 90
Crabgrass, Large plant response rating (crabgrass, large; [20]): 80
Plant response rating (scale of 0 to 100), Pigweed (pigweed): 100
Pigweed plant response rating (pigweed; [15]): 100
Plant response rating, Pigweed (pigweed; 13 to 15 days): 100
Pigweed plant response rating (pigweed; [16]): 100
Corn plant response rating (corn [8]; [19]): 80
Corn plant response rating (corn [8]; [20]): 70
Morningglory plant response rating (morningglory; [19]): 90
Morningglory plant response rating (morningglory; [20]): 80
Corn plant response rating (corn [9]; Postemergence, 31 g ai/ha): 10
Corn plant response rating (corn [9]; postemergence, 62 g ai/ha): 10
Plant response rating, Corn (corn [9]; [17]): 60
Plant response rating, Corn (corn [9]; [18]): 10
Soybean plant response rating (soybean [10]): 20
Plant response rating, Soybean (soybean [10]; [11]): 40
Plant response rating, Soybean (soybean [10]; [12]): 35

CCc1cc(C(=O)NOC(C)C)nn1Cc1cccc(OC(F)(F)F)c1 [Compound 70]
Wheat plant response rating (wheat [1]): 15
Plant response rating, Wheat (wheat [1]; [11]): 25
Plant response rating, Wheat (wheat [1]; [12]): 20
Wheat plant response rating (wheat [2]; [13]): 50
Wheat plant response rating (wheat [2]; [14]): 30
Plant response rating (scale of 0 to 100), Soybean (soybean [3]): 75
Soybean plant response rating (soybean [3]; [15]): 5
Plant response rating, Soybean (soybean [3]; 13 to 15 days): 15
Soybean plant response rating (soybean [3]; [16]): 70
Plant response rating, Ragweed (ragweed [4]; [11]): 65
Plant response rating, Ragweed (ragweed [4]; 62 g ai/ha, scale 0 to 100, 0 no effect, 100 complete control): 60
Plant response rating, Ragweed (ragweed [4]; [12]): 65
Lambsquarters plant response rating (lambsquarters; Postemergence, 31 g ai/ha): 75
Plant response rating, Lambsquarters (lambsquarters; [17]): 98
Plant response rating, Lambsquarters (lambsquarters; [21]): 95
Plant response rating, Lambsquarters (lambsquarters; [18]): 95
Velvetleaf plant response rating (velvetleaf [5]): 20
Plant response rating, Velvetleaf (velvetleaf [5]; [11]): 55
Plant response rating, Velvetleaf (velvetleaf [5]; [12]): 30
Velvetleaf plant response rating (velvetleaf [6]; [19]): 90
Velvetleaf plant response rating (velvetleaf [6]; [20]): 80
Plant response rating (scale of 0 to 100), Ragweed (ragweed [7]): 40
Ragweed plant response rating (ragweed [7]; [15]): 0
Plant response rating, Ragweed (ragweed [7]; 13 to 15 days): 25
Ragweed plant response rating (ragweed [7]; [16]): 30
Foxtail, Giant plant response rating (foxtail, giant; [19]): 90
Foxtail, Giant plant response rating (foxtail, giant; [20]): 90
Crabgrass, Large plant response rating (crabgrass, large; [19]): 90
Crabgrass, Large plant response rating (crabgrass, large; [20]): 90
Plant response rating (scale of 0 to 100), Pigweed (pigweed): 100
Pigweed plant response rating (pigweed; [15]): 100
Plant response rating, Pigweed (pigweed; 13 to 15 days): 100
Pigweed plant response rating (pigweed; [16]): 100
Corn plant response rating (corn [8]; [19]): 70
Corn plant response rating (corn [8]; [20]): 60
Morningglory plant response rating (morningglory; [19]): 100
Morningglory plant response rating (morningglory; [20]): 100
Corn plant response rating (corn [9]; Postemergence, 31 g ai/ha): 10
Plant response rating, Corn (corn [9]; [17]): 50
Plant response rating, Corn (corn [9]; [21]): 40
Plant response rating, Corn (corn [9]; [18]): 45
Soybean plant response rating (soybean [10]): 55
Plant response rating, Soybean (soybean [10]; [11]): 65
Plant response rating, Soybean (soybean [10]; [12]): 55
